Reference: US8921363B2, “Derivatives of 1 H-isoindol-3-amine, 1 H-iso-aza-indol-3amine, 3,4-dihydroisoquinolin-1-amine, and 1,4-dihydroisoquinolin-3-amine as beta-secretase inhibitors” (Amgen Inc., priority 2010, dated 2014)

Tests used:
[1] = test system: Aβ40 in conditioned medium of cells expressing amyloid precursor protein; assay: In vitro BACE cell-based assay (HEK cell assay, Aβ40 sandwich ELISA); conditions: Homo sapiens, HEK293; average IC50; Aβ40 after 24 h incubation
BACE1 = BACE1 (Homo sapiens, UniProt P56817); assay: In vitro enzymatic BACE FRET assay; assay type: biochemical
Experimental: In Vitro Enzymatic BACE FRET (fluorescence resonance energy transfer) Assay (Enzyme Assay data in the Example Table I)
The assay buffer used in this screen is 0.05 M acetate, pH 4.2, 10% DMSO final, 100 uM genapol (which is a nonionic detergent, below its Critical Micelle Concentration). […] This assay is effectively started by the addition of FRET substrate (50 nM) and the combination is incubated for one hour. The FRET assay is terminated with by addition of Tris buffer, which raises the pH to neutrality, and the fluorescence is determined. The FRET substrate is a peptide with commercially available fluorophore and quencher, on opposite sides of the BACE cleavage site. Proteolytic cleavage of the FRET substrate releases quenching of fluorescence (excitation […] and […]).

Sequence of BACE1 (P56817 46-501): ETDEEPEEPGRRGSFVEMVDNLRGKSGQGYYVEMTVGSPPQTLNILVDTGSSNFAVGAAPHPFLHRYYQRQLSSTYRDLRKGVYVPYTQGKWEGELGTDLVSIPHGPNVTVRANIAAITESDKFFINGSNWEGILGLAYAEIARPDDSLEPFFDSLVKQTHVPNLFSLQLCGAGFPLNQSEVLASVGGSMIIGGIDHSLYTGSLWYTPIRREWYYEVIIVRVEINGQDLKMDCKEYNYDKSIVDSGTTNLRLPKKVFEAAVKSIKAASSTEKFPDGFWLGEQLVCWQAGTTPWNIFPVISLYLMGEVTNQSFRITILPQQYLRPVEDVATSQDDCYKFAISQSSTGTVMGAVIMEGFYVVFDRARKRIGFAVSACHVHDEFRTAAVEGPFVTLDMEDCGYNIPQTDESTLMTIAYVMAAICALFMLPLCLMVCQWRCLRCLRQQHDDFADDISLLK

Structure (SMILES)	IC50 [1] [nM]	IC50 (BACE1) [nM]
NC1=NC2(c3cc(-c4cccnc4F)ccc3Oc3cnc(-c4ccnc(F)c4)cc32)c2ccccc21 (racemic) [Example 10, 7-(2-fluoropyridin-3-yl)-3-(2-fluoropyridin-4-yl)spiro[chromeno[2,3-c]pyridine-5,1′-isoindol]-3′-amine]	12	1
NC1=NC2(c3cc(Br)ccc3Oc3cnc(Cl)cc32)c2ccccc21 (racemic) [Example 10c, 7-bromo-3-chlorospiro[chromeno[2,3-c]pyridine-5,1′-isoindol]-3′-amine]	64.5	6940
NC1=NC2(c3cc(-c4cccnc4F)ccc3Oc3cnc(C4CCOCC4)cc32)c2ccccc21 (racemic) [Example 12, 7-(2-fluoropyridin-3-yl)-3-(tetrahydro-2H-pyran-4-yl)spiro[chromeno[2,3-c]pyridine-5,1′-isoindol]-3′-amine]	13	4
CC(C)(C)C#Cc1cc2c(cn1)Oc1ccc(-c3cccnc3F)cc1C21N=C(N)c2ccccc21 (racemic) [Example 13, 3-(3,3-dimethylbut-1-ynyl)-7-(2-fluoropyridin-3-yl)spiro[chromeno[2,3-c]pyridine-5,1′-isoindol]-3′-amine]	70	6
NC1=NC2(c3ccccc3O1)c1cc(-c3cccnc3F)ccc1Oc1cnc(C3=CCCOC3)cc12 (racemic) [Example 18, 3′-(5,6-dihydro-2H-pyran-3-yl)-7′-(2-fluoropyridin-3-yl)spiro[benzo[e][1,3]oxazine-4,5′-chromeno[2,3-c]pyridin]-2-amine]	122	2
NC1=NC2(c3cc(-c4cccnc4F)ccc3Oc3cnc(Cl)cc32)c2ncccc2O1 (racemic) [Example 21, 3-chloro-7-(2-fluoropyridin-3-yl)spiro[chromeno[2,3-c]pyridine-5,4′-pyrido[2,3-e][1,3]oxazin]-2′-amine]	> 10000	370
NC1=NC2(c3cc(-c4cccnc4F)ccc3Oc3cnc(-c4ccnc(F)c4)cc32)c2cccnc2O1 (racemic) [Example 24, 7-(2-fluoropyridin-3-yl)-3-(2-fluoropyridin-4-yl)spiro[chromeno[2,3-c]pyridine-5,4-pyrido[3,2-e][1,3]oxazin]-2′-amine]	320	1.8
NC1=N[C@]2(c3cc(-c4cccnc4F)ccc3Oc3cnc(-c4cccnc4F)cc32)c2ccccc21 (single isomer, unassigned) [Example 10-C]	> 10000	900
NC1=N[C@@]2(c3cc(-c4cccnc4F)ccc3Oc3cnc(-c4cccnc4F)cc32)c2ccccc21 (single isomer, unassigned) [Example 10-D]	> 10000	> 10000
NC1=N[C@@]2(c3cc(Br)ccc3Oc3c2cc(Cl)nc3F)c2cnccc21 (single isomer, unassigned) [Example 14c-1]	> 10000	> 10000
NC1=N[C@]2(c3cc(Br)ccc3Oc3c2cc(Cl)nc3F)c2cnccc21 (single isomer, unassigned) [Example 14c-2]	> 10000	3440
NC1=N[C@@]2(c3cc(Br)ccc3Oc3c2cc(Cl)nc3F)c2cccnc21 (single isomer, unassigned) [Example 17c-1]	> 10000	> 10000
NC1=N[C@]2(c3cc(Br)ccc3Oc3c2cc(Cl)nc3F)c2cccnc21 (single isomer, unassigned) [Example 17c-2]	> 10000	3440
NC1=NC2(c3cc(Br)ccc3Oc3c2cc(Cl)nc3F)c2cnccc21 (centres unmarked) [Example 14c, 7-bromo-3-chloro-1-fluorospiro[chromeno[2,3-c]pyridine-5,3′-pyrrolo[3,4-c]pyridin]-1′-amine]	> 10000	4580
NC1=NC2(c3ccccc3O1)c1cc(-c3cccnc3F)ccc1Oc1cnc(-c3ccnc(F)c3)cc12 (centres unmarked) [Example 19, 7′-(2-fluoropyridin-3-yl)-3′-(2-fluoropyridin-4-yl)spiro[benzo[e][1,3]oxazine-4,5′-chromeno[2,3-c]pyridin]-2-amine]	–	2

Now from value to compound:

IC50 [1] [nM]	IC50 (BACE1) [nM]	Structure (SMILES)
8	1	NC1=NC2(c3cc(-c4cccnc4F)ccc3Oc3c2cc(-c2ccnc(F)c2)nc3F)c2ccccc21 (racemic) [Example 5e, 1-fluoro-7-(2-fluoropyridin-3-yl)-3-(2-fluoropyridin-4-yl)spiro[chromeno[2,3-c]pyridine-5,1′-isoindol]-3′-amine]
3	1	NC1=NC2(c3cc(-c4cccnc4F)ccc3Oc3c2cc(C2=CCOCC2)nc3F)c2ccccc21 (racemic) [Example 6, 3-(3,6-dihydro-2H-pyran-4-yl)-1-fluoro-7-(2-fluoropyridin-3-yl)spiro[chromeno[2,3-c]pyridine-5,1′-isoindol]-3′-amine]
13	1	NC1=NC2(c3cc(-c4cccnc4F)ccc3Oc3c2cc(C2=CCCOC2)nc3F)c2ccccc21 (racemic) [Example 7, 3-(5,6-dihydro-2H-pyran-3-yl)-1-fluoro-7-(2-fluoropyridin-3-yl)spiro[chromeno[2,3-c]pyridine-5,1′-isoindol]-3′-amine]
14	4.2	NC1=NC2(c3cc(-c4cccnc4F)ccc3Oc3c2cc(N2CCOCC2)nc3F)c2ccccc21 (racemic) [Example 8, 1-fluoro-7-(2-fluoropyridin-3-yl)-3-morpholinospiro[chromeno[2,3-c]pyridine-5,1′-isoindol]-3′-amine]
27	5.3	NC1=NC2(c3cc(-c4cccnc4F)ccc3Oc3c2cc(N2CCC(F)(F)C2)nc3F)c2ccccc21 (racemic) [Example 9, 3-(3,3-difluoropyrrolidin-1-yl)-1-fluoro-7-(2-fluoropyridin-3-yl)spiro[chromeno[2,3-c]pyridine-5,1′-isoindol]-3′-amine]
140	36	NC1=NC2(c3cc(-c4cccnc4F)ccc3Oc3cnc(Cl)cc32)c2ccccc21 (racemic) [Example 10d, 3-chloro-7-(2-fluoropyridin-3-yl)spiro[chromeno[2,3-c]pyridine-5,1′-isoindol]-3′-amine]
12	3	NC1=NC2(c3cc(-c4cccnc4F)ccc3Oc3cnc(C4=CCOCC4)cc32)c2ccccc21 (racemic) [Example 11, 3-(3,6-dihydro-2H-pyran-4-yl)-7-(2-fluoropyridin-3-yl)spiro[chromeno[2,3-c]pyridine-5,1′-isoindol]-3′-amine]
11	1	NC1=NC2(c3cc(-c4cccnc4F)ccc3Oc3c2cc(-c2ccnc(F)c2)nc3F)c2ncccc21 (racemic) [Example 15, 1-fluoro-7-(2-fluoropyridin-3-yl)-3-(2-fluoropyridin-4-yl)spiro[chromeno[2,3-c]pyridine-5,7′-pyrrolo[3,4-b]pyridin]-5′-amine]
1860	18.2	NC1=N[C@@]2(c3cc(-c4cccnc4F)ccc3Oc3c2cc(-c2ccnc(F)c2)nc3F)c2ccccc21 (single isomer, unassigned) [Example 5-A]
11	0.6	NC1=N[C@]2(c3cc(-c4cccnc4F)ccc3Oc3c2cc(-c2ccnc(F)c2)nc3F)c2ccccc21 (single isomer, unassigned) [Example 5-B]
336	78	NC1=N[C@@]2(c3cc(-c4cccnc4F)ccc3Oc3c2cc(C2=CCCOC2)nc3F)c2ccccc21 (single isomer, unassigned) [Example 7-A]
8	0.4	NC1=N[C@]2(c3cc(-c4cccnc4F)ccc3Oc3c2cc(-c2ccnc(F)c2)nc3F)c2cnccc21 (single isomer, unassigned) [Example 14-A]
2460	107	NC1=N[C@@]2(c3cc(-c4cccnc4F)ccc3Oc3c2cc(-c2ccnc(F)c2)nc3F)c2cnccc21 (single isomer, unassigned) [Example 14-B]
224	6	NC1=NC2(c3cc(-c4cccnc4F)ccc3Oc3c2cc(Cl)nc3F)c2ccccc21 (centres unmarked) [Example 5d, 3-chloro-1-fluoro-7-(2-fluoropyridin-3-yl)spiro[chromeno[2,3-c]pyridine-5,1′-isoindol]-3′-amine]
2	0.5	NC1=N[C@]2(c3cc(-c4cccnc4F)ccc3Oc3c2cc(C2=CCCOC2)nc3F)c2cnccc21 [Example 14-E, (S)-3-(5,6-dihydro-2H-pyran-3-yl)-1-fluoro-7-(2-fluoropyridin-3-yl)spiro[chromeno[2,3-c]pyridine-5,3′-pyrrolo[3,4-c]pyridin]-1′-amine]
771	3.7	NC1=NC2(c3cc(-c4cccnc4F)ccc3Oc3c2cc(Cl)nc3F)c2cnccc21 (centres unmarked) [Example 14d, 3-chloro-1-fluoro-7-(2-fluoropyridin-3-yl)spiro[chromeno[2,3-c]pyridine-5,3′-pyrrolo[3,4-c]pyridin]-1′-amine]
> 10000	6570	NC1=N[C@@]2(c3cc(-c4cccnc4F)ccc3Oc3c2cc(Cl)nc3F)c2cnccc21 [Example 14d-1, (R)-3-chloro-1-fluoro-7-(2-fluoropyridin-3-yl)spiro[chromeno[2,3-c]pyridine-5,3′-pyrrolo[3,4-c]pyridin]-1′-amine]
35.5	2.5	NC1=N[C@]2(c3cc(-c4cccnc4F)ccc3Oc3c2cc(Cl)nc3F)c2cnccc21 [Example 14d-2, (S)-3-chloro-1-fluoro-7-(2-fluoropyridin-3-yl)spiro[chromeno[2,3-c]pyridine-5,3′-pyrrolo[3,4-c]pyridin]-1′-amine]
